Assay [1] concerns the target T1, Angiotensin-converting enzyme (Homo sapiens, UniProt P12821). The assay can be described thus: Inhibition of human ACE N-terminal domain using Cbz-Phe-His-Leu-OH substrate.
Assay [2] addresses T2, Angiotensin-converting enzyme (Oryctolagus cuniculus, UniProt P12822).
T2 sequence (P12822 whole entry): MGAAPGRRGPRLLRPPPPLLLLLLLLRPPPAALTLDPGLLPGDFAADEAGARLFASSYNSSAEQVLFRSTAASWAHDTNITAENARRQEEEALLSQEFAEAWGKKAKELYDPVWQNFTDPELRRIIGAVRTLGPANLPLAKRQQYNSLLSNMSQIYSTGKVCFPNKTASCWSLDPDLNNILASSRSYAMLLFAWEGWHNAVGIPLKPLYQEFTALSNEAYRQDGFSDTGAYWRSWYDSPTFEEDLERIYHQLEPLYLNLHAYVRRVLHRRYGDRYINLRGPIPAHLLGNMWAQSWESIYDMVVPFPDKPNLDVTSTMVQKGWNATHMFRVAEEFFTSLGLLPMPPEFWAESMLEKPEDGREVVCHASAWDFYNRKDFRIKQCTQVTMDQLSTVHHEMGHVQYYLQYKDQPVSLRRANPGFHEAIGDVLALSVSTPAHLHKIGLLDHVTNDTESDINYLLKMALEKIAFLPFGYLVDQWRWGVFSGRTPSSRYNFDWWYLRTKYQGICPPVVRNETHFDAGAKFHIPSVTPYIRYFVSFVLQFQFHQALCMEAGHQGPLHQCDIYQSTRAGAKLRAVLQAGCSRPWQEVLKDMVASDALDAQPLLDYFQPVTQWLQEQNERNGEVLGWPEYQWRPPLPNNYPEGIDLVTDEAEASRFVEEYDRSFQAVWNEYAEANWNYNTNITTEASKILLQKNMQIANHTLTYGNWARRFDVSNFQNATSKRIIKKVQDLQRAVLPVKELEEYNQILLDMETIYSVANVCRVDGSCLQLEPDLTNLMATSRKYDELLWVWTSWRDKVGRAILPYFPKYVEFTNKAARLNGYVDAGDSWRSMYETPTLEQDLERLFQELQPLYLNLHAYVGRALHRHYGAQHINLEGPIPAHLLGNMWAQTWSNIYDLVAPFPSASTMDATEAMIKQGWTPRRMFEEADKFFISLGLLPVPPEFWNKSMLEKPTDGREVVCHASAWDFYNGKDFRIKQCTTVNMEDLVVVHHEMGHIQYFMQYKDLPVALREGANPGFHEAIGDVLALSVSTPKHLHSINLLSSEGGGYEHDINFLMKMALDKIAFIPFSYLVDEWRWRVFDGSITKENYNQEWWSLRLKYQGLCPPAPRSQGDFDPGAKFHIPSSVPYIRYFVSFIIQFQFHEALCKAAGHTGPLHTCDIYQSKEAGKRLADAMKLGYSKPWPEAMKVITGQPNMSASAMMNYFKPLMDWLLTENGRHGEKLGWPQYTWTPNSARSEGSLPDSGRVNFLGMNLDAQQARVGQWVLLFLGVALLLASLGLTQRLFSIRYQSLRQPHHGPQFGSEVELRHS
The assay can be described thus: Inhibition of rabbit lung somatic ACE using FAPGG substrate.

The target of assay [3] is T1, Angiotensin-converting enzyme. The assay can be described thus: Inhibition of human ACE C-terminal domain using Cbz-Phe-His-Leu-OH substrate.
Assay [4] shares this target. The assay can be described thus: Inhibition of ACE (unknown origin).
The target of assay [5] is T3, Dipeptidyl carboxypeptidase (Escherichia coli (strain K12), UniProt P24171).
T3 sequence (P24171 whole entry): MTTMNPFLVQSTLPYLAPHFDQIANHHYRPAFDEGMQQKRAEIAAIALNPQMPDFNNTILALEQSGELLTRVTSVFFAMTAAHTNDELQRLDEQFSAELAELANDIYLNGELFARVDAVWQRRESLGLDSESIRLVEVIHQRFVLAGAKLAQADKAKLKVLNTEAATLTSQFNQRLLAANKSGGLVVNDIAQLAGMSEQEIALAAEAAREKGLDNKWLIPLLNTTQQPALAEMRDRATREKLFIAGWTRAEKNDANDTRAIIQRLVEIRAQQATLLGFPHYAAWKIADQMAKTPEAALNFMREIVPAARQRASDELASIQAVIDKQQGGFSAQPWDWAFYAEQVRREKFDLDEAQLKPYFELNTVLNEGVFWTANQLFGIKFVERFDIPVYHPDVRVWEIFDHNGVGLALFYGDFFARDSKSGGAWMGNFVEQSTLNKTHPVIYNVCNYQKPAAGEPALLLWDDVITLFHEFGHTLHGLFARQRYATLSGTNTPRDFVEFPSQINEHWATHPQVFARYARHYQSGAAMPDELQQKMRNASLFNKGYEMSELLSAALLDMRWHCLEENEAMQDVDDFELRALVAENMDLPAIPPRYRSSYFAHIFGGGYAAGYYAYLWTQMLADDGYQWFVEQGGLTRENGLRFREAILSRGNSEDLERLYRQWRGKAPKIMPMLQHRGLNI
As to the kind of experiment: Inhibition of Escherichia coli dipeptidyl carboxypeptidase assessed as FAPGG substrate hydrolysis.

Assay [6] in a line: Inhibition of Schwanella oneidensis dipeptidyl carboxypeptidase assessed as FAPGG substrate hydrolysis.
Assay [7] in a line: Inhibition of Astrosporangium hypotensionis dicarboxypeptidase assessed as FAPGG substrate hydrolysis.

Structures are written as SMILES. Some results are limits rather than exact numbers.

For orientation: IC50 means the concentration needed to halve the response being measured. As a reminder, the Ki is the dissociation constant of the complex between target and ligand, obtained from inhibition or displacement.

T1 sequence (P12821 whole entry, the tested form may be a part): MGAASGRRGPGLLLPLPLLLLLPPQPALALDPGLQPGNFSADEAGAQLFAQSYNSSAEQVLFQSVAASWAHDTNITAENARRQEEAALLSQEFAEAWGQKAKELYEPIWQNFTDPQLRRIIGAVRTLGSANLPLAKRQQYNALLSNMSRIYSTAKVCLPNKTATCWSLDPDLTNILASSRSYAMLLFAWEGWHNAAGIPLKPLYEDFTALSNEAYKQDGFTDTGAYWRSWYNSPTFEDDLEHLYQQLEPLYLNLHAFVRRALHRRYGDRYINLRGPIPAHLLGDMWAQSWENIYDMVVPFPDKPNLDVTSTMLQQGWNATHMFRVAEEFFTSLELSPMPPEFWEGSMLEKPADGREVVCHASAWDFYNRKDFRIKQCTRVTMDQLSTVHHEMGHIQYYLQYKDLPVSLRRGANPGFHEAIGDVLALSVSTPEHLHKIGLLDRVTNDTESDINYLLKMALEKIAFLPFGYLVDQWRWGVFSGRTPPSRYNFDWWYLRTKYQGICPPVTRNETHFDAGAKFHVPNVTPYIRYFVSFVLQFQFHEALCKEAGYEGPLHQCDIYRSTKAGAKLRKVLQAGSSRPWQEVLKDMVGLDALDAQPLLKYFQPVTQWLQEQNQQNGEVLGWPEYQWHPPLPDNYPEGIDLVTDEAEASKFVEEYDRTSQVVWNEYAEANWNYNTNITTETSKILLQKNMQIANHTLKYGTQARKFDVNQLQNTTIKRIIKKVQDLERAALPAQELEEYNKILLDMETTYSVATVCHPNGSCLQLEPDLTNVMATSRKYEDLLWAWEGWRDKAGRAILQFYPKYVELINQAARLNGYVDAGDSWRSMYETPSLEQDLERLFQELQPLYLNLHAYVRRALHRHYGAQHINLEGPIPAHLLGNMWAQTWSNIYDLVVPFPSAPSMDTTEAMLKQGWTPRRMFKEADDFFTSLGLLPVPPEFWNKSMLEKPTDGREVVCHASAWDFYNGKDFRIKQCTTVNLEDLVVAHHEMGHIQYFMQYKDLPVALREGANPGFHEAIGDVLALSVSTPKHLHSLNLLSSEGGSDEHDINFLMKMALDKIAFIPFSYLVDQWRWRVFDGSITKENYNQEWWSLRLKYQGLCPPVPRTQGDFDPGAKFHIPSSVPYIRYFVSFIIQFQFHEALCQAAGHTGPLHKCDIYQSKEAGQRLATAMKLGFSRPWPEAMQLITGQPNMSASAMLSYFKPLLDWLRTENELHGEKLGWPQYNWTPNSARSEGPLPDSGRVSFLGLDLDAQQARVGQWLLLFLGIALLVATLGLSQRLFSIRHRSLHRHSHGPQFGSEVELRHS

Take `CN[C@H](C(=O)N[C@@H](Cc1ccccc1)C(=O)N[C@@H](Cc1ccc(O)cc1)P(=O)(O)O)C(C)C`: the IC50 in assay [1] is 220 nM; in assay [2], 370 nM; in assay [3] it was 590 nM.

As for `N[C@@H](Cc1ccc(O)cc1)P(=O)(O)O`, the half-maximal inhibitory concentration (IC50) in assay [4] is above 1000 nM.

Take `CC[C@H](C)[C@H](NC(C)=O)C(=O)N[C@@H](Cc1ccc(O)cc1)C(=O)N[C@@H](Cc1ccc(O)cc1)P(=O)(O)O`: the IC50 in assay [5] worked out at 150000 nM; in assay [1], 110 nM; in assay [6], 11000 nM; in assay [2] it was 25 nM; in assay [3], 11 nM; in assay [7] it was 40000 nM. The Ki in assay [1] is 75 nM; in assay [3], 11 nM.

In assay [2], `CC[C@H](C)[C@H](NC(C)=O)C(=O)N[C@@H](Cc1ccccc1)C(=O)N[C@@H](Cc1ccc(O)cc1)P(=O)(O)O` had a half-inhibitory concentration (IC50) of 35 nM.

On to `CN[C@H](C(=O)N[C@@H](Cc1ccc(O)cc1)C(=O)N[C@@H](Cc1ccc(O)cc1)P(=O)(O)O)C(C)C`, for which the 50% inhibitory concentration (IC50) is 52 nM in assay [1], 140 nM in assay [2] and 54 nM in assay [3].

As to `CC[C@H](C)[C@H](NC(C)=O)C(=O)N[C@@H](CC(C)C)C(=O)N[C@@H](Cc1ccc(O)cc1)P(=O)(O)O`, the IC50 in assay [1] was 76 nM; in assay [2], 100 nM; in assay [3], 12 nM. For the same compound, the Ki was 33 nM in assay [1] and 21 nM in assay [3].

`CC[C@H](C)[C@H](NC(C)=O)C(=O)N[C@@H](CCC(=O)O)C(=O)N[C@@H](Cc1ccc(O)cc1)P(=O)(O)O`: the half-maximal inhibitory concentration (IC50) in assay [2] was 5200 nM.
